Blank lines part the entries; values can stand above or below the compound they belong to.
Assays:
[1] = system: P. falciparum 3D7 trophozoites; test: Metabolomic fingerprint profiling LC-MS; format: cell-based, Plasmodium falciparum; parameters: UDP-D-glucose / ADP-D-glucose: unit not given here; conditions: for Acetyllysine / N-acetyl-L-ornithine / N-carbamoyl-L-aspartate / NADPH / dAMP / dCMP / dTDP / dTMP / dTTP / dihydroorotate / orotate / DLH / DLS/SDL/SID / PD / PEE / PVNF / 3-phosphoglycerate / ADP-D-glucose / ATP / CDP / D-sedoheptulose-1/7-phosphate / FAD / GMP / NAD+ / NADP+ / Octoluse Bisphosphate / Pyroglutamic acid / UDP-D-glucose / UDP-D-glucuronate / UDP-N-acetyl-glucosamine / UDP / UMP / UTP / a-ketoglutarate / citrate/isocitrate / cytidine / dATP / dGMP/AMP / fumarate / glucose-1/6-phosphate / glycerate / guanine / guanosine / hypoxanthine / indole / inosine / nicotinate / ornithine / phosphoenolpyruvate / pyruvate / ribose-phosphate / sarcosine/alanine / sn-glycerol-3-phosphate / succinate/methylmalonic acid / uridine / xanthosine: S2 Table Metabolomics; for Acetyllysine: metabolite Acetyllysine; for N-acetyl-L-ornithine: metabolite N-acetyl-L-ornithine; for N-carbamoyl-L-aspartate: metabolite N-carbamoyl-L-aspartate; for NADPH: metabolite NADPH; for dAMP: metabolite dAMP; for dCMP: metabolite dCMP; for dTDP: metabolite dTDP; for dTMP: metabolite dTMP; for dTTP: metabolite dTTP; for dihydroorotate: metabolite dihydroorotate; for orotate: metabolite orotate; for DLH: peptide DLH; for DLS/SDL/SID: peptide DLS/SDL/SID; for PD: peptide PD; for PEE: peptide PEE; for PVNF: peptide PVNF; for 3-phosphoglycerate: metabolite 3-phosphoglycerate; for ADP-D-glucose: metabolite ADP-D-glucose; for ATP: metabolite ATP; for CDP: metabolite CDP; for CDP / D-sedoheptulose-1/7-phosphate / GMP / Octoluse Bisphosphate / UDP / UMP / UTP / citrate/isocitrate / dGMP/AMP / fumarate / glucose-1/6-phosphate / glycerate / guanine / guanosine / inosine / pyruvate / sarcosine/alanine / succinate/methylmalonic acid / uridine / xanthosine: change in metabolite level after compound treatment; for D-sedoheptulose-1/7-phosphate: metabolite D-sedoheptulose-1/7-phosphate; for FAD: metabolite FAD; for GMP: metabolite GMP; for NAD+: metabolite NAD+; for NADP+: metabolite NADP+; for Octoluse Bisphosphate: metabolite Octoluse Bisphosphate; for Pyroglutamic acid: metabolite Pyroglutamic acid; for UDP-D-glucose: metabolite UDP-D-glucose; for UDP-D-glucuronate: metabolite UDP-D-glucuronate; for UDP-N-acetyl-glucosamine: metabolite UDP-N-acetyl-glucosamine; for UDP: metabolite UDP; for UMP: metabolite UMP; for UTP: metabolite UTP; for a-ketoglutarate: metabolite a-ketoglutarate; for citrate/isocitrate: metabolite citrate/isocitrate; for cytidine: metabolite cytidine; for dATP: metabolite dATP; for dGMP/AMP: metabolite dGMP/AMP; for fumarate: metabolite fumarate; for glucose-1/6-phosphate: metabolite glucose-1/6-phosphate; for glycerate: metabolite glycerate; for guanine: metabolite guanine; for guanosine: metabolite guanosine; for hypoxanthine: metabolite hypoxanthine; for indole: metabolite indole; for inosine: metabolite inosine; for 2_3-Diphosphoglyceric acid / 4-phosphopantothenate / 6-phospho-D-gluconate / FMN / IMP / Pyrophosphate / Sedoheptoluse bisphosphate / cyclic-AMP / glutathione disulfide / lactate / myo-inositol: metabolite level change after treatment; for nicotinate: metabolite nicotinate; for ornithine: metabolite ornithine; for phosphoenolpyruvate: metabolite phosphoenolpyruvate; for pyruvate: metabolite pyruvate; for ribose-phosphate: metabolite ribose-phosphate; for sarcosine/alanine: metabolite sarcosine/alanine; for sn-glycerol-3-phosphate: metabolite sn-glycerol-3-phosphate; for succinate/methylmalonic acid: metabolite succinate/methylmalonic acid; for uridine: metabolite uridine; for xanthosine: metabolite xanthosine
P. falciparum = test: EC50 listed in S2 Table Metabolomics (used to set the concentration tested); format: cell-based; conditions: Plasmodium falciparum; EC50 used for Factor_XEC50 in metabolomics; read-out: EC50_nM

EC50 (P. falciparum): 117 nM
Structure (SMILES): CCOc1ccc(-c2nonc2NC(=O)c2cccc(C)c2)cc1OCC [MMV665805]
Acetyllysine [1]: -2.655
N-acetyl-L-ornithine [1]: -3.165
N-carbamoyl-L-aspartate [1]: -1.056
NADPH [1]: 0.0179
dAMP [1]: -0.2659
dCMP [1]: -0.0001746
dTDP [1]: -0.4156
dTMP [1]: 0.168
dTTP [1]: -1.808
dihydroorotate [1]: -0.8461
orotate [1]: -0.316
DLH [1]: -3.43
DLS/SDL/SID [1]: -2.376
PD [1]: -4.256
PEE [1]: -1.272
PVNF [1]: -3.291
3-phosphoglycerate [1]: -0.4238
ADP-D-glucose [1]: -0.07023
ATP [1]: -0.872
CDP [1]: 0.2433
D-sedoheptulose-1/7-phosphate [1]: 0.2738
FAD [1]: -1.216
GMP [1]: -1.407
NAD+ [1]: -0.2783
NADP+ [1]: 0.09325
Octoluse Bisphosphate [1]: -2.628
Pyroglutamic acid [1]: 0.2488
UDP-D-glucose [1]: -0.08929
UDP-D-glucuronate [1]: 0.1004
UDP-N-acetyl-glucosamine [1]: -0.1333
UDP [1]: 0.1418
UMP [1]: -2.433
UTP [1]: -1.276
a-ketoglutarate [1]: 0.06268
citrate/isocitrate [1]: -0.7764
cytidine [1]: -0.5056
dATP [1]: -1.548
dGMP/AMP [1]: 0.3312
fumarate [1]: -2.16
glucose-1/6-phosphate [1]: -1.496
glycerate [1]: -1.128
guanine [1]: -1.378
guanosine [1]: -1.192
hypoxanthine [1]: 0.2303
indole [1]: 0.06669
inosine [1]: -2.254
2_3-Diphosphoglyceric acid [1]: -1.518
4-phosphopantothenate [1]: -1.982
6-phospho-D-gluconate [1]: -1.236
FMN [1]: -1.528
IMP [1]: -1.238
Pyrophosphate [1]: -1.477
Sedoheptoluse bisphosphate [1]: -1.741
cyclic-AMP [1]: -2.892
glutathione disulfide [1]: -1.641
lactate [1]: -4.838
myo-inositol [1]: -5.977
nicotinate [1]: -0.4798
ornithine [1]: -0.1601
phosphoenolpyruvate [1]: 0.09842
pyruvate [1]: -2.577
ribose-phosphate [1]: -0.0001746
sarcosine/alanine [1]: -2.25
sn-glycerol-3-phosphate [1]: -0.6654
succinate/methylmalonic acid [1]: -1.698
uridine [1]: -2.032
xanthosine [1]: 0.4761

EC50 (P. falciparum): 282 nM
Structure (SMILES): Cc1ccc(N2C(=O)C3C(C2=O)C2(c4ccccc4)C(=O)C3(c3ccccc3)C(c3ccccc3)=C2c2ccccc2)cc1 (stereo not drawn) [MMV666062]
Acetyllysine [1]: -0.1709
N-acetyl-L-ornithine [1]: -0.324
N-carbamoyl-L-aspartate [1]: -0.2951
NADPH [1]: -0.2149
dAMP [1]: -0.4875
dCMP [1]: -0.7263
dTDP [1]: -0.1985
dTMP [1]: -0.6991
dTTP [1]: -0.2344
dihydroorotate [1]: -0.213
orotate [1]: -0.7199
DLH [1]: -0.006238
DLS/SDL/SID [1]: -0.3315
PD [1]: -0.3487
PEE [1]: -0.01834
PVNF [1]: -0.09341
3-phosphoglycerate [1]: -1.0087
ADP-D-glucose [1]: -0.2764
ATP [1]: -0.1502
CDP [1]: -0.3978
D-sedoheptulose-1/7-phosphate [1]: -0.4359
FAD [1]: -0.2118
GMP [1]: -0.3584
NAD+ [1]: -0.2488
NADP+ [1]: -0.1786
Octoluse Bisphosphate [1]: -0.3963
Pyroglutamic acid [1]: -0.08618
UDP-D-glucose [1]: -0.2942
UDP-D-glucuronate [1]: -0.1481
UDP-N-acetyl-glucosamine [1]: -0.3667
UDP [1]: -0.4806
UMP [1]: -0.3962
UTP [1]: -0.1426
a-ketoglutarate [1]: -0.4814
citrate/isocitrate [1]: -0.07191
cytidine [1]: -0.4412
dATP [1]: -0.199
dGMP/AMP [1]: -0.7601
fumarate [1]: -0.1898
glucose-1/6-phosphate [1]: 0.1468
glycerate [1]: -0.3247
guanine [1]: -0.8033
guanosine [1]: -0.4206
hypoxanthine [1]: -0.5014
indole [1]: -0.4173
inosine [1]: -0.516
2_3-Diphosphoglyceric acid [1]: -0.1968
4-phosphopantothenate [1]: -0.3798
6-phospho-D-gluconate [1]: -0.105
FMN [1]: -0.4755
IMP [1]: -0.5384
Pyrophosphate [1]: -0.0001746
Sedoheptoluse bisphosphate [1]: -0.4955
cyclic-AMP [1]: -0.438
glutathione disulfide [1]: -0.4046
lactate [1]: -0.3401
myo-inositol [1]: 0.6705
nicotinate [1]: -0.6806
ornithine [1]: -0.4373
phosphoenolpyruvate [1]: -0.3807
pyruvate [1]: -0.5819
ribose-phosphate [1]: -0.7488
sarcosine/alanine [1]: -0.5636
sn-glycerol-3-phosphate [1]: -0.1452
succinate/methylmalonic acid [1]: -0.2494
uridine [1]: -0.8945
xanthosine [1]: -0.2816

EC50 (P. falciparum): 512 nM
Structure (SMILES): CCn1c(CN2CCN(Cc3ccccc3)CC2)nc2cc(NC(=O)c3cccs3)ccc21 [MMV020439]
Acetyllysine [1]: 0.7202
N-acetyl-L-ornithine [1]: 1.173
N-carbamoyl-L-aspartate [1]: 4.61
NADPH [1]: 0.6182
dAMP [1]: -1.31
dCMP [1]: -0.04169
dTDP [1]: -1.17
dTMP [1]: -0.7966
dTTP [1]: -1.312
dihydroorotate [1]: 4.909
orotate [1]: 0.06984
DLH [1]: 0.527
DLS/SDL/SID [1]: 0.4749
PD [1]: 0.8243
PEE [1]: 1.011
PVNF [1]: 0.2931
3-phosphoglycerate [1]: -0.2906
ADP-D-glucose [1]: 0.1986
ATP [1]: -0.1401
CDP [1]: -0.619
D-sedoheptulose-1/7-phosphate [1]: 0.1339
FAD [1]: 0.2064
GMP [1]: -0.008752
NAD+ [1]: -0.02079
NADP+ [1]: 0.1784
Octoluse Bisphosphate [1]: -0.1148
Pyroglutamic acid [1]: -0.1051
UDP-D-glucose [1]: -0.06605
UDP-D-glucuronate [1]: -0.1248
UDP-N-acetyl-glucosamine [1]: -0.297
UDP [1]: -1.2
UMP [1]: -1.107
UTP [1]: -1.42
a-ketoglutarate [1]: -0.8941
citrate/isocitrate [1]: -0.2089
cytidine [1]: 0.004614
dATP [1]: 0.08773
dGMP/AMP [1]: -0.284
fumarate [1]: 0.6925
glucose-1/6-phosphate [1]: -0.2278
glycerate [1]: -0.4348
guanine [1]: 0.1895
guanosine [1]: 0.2428
hypoxanthine [1]: -0.1751
indole [1]: -0.1227
inosine [1]: -0.4694
2_3-Diphosphoglyceric acid [1]: -0.2253
4-phosphopantothenate [1]: -0.909
6-phospho-D-gluconate [1]: -0.007867
FMN [1]: -0.349
IMP [1]: -0.2804
Pyrophosphate [1]: -0.2048
Sedoheptoluse bisphosphate [1]: 0.08493
cyclic-AMP [1]: -0.08461
glutathione disulfide [1]: -0.0242
lactate [1]: -0.4874
myo-inositol [1]: -0.8159
nicotinate [1]: -0.2742
ornithine [1]: -0.03081
phosphoenolpyruvate [1]: -0.3915
pyruvate [1]: -0.2887
ribose-phosphate [1]: -0.1311
sarcosine/alanine [1]: 1.094
sn-glycerol-3-phosphate [1]: 0.2993
succinate/methylmalonic acid [1]: 0.5601
uridine [1]: 0.2091
xanthosine [1]: -0.0525
